As a reminder, the pIC50 is −log10 of the IC50, conventionally taken in molar units. What is called half-life is the time in which the quantity being followed falls by half. Low readings indicate fast loss, high ones slow loss. What is called bioavailability is dose-corrected exposure relative to a reference, in per cent. Read a low bioavailability as poor availability. The term logD denotes the decadic logarithm of the distribution of all forms, ionised or not, between an organic phase and buffer at a given pH. A higher logD goes with higher lipophilicity. The solubility is the concentration that dissolves in the medium under given conditions. Low values mean little dissolved substance, high ones much dissolved substance. In general, Papp refers to the rate of passage across a membrane or cell layer, normalised by area and donor concentration. By EC50 is commonly meant the midpoint of the concentration-response curve. Read a low EC50 as greater potency. A word on the clearance: it is a measure of how efficiently the substance is removed, as volume per time. What is called efflux ratio is the permeability from basolateral to apical divided by that in the opposite direction, in the common usage.

We go through four compounds from ChEMBL document CHEMBL5143671, “Discovery of (R)-(3-fluoropyrrolidin-1-yl)(6-((5-(trifluoromethyl)pyridin-2-yl)oxy)quinolin-2-yl)methanone (ABBV-318) and analogs as small molecule Nav1.7/ Nav1.8 blockers for the treatment of pain” (Bioorg Med Chem, 2022).

pIC50: −log10 of the molar value. ≈ marks a conversion by molar mass, not a printed value.

The target of series [1] is Sodium channel protein type 2 subunit alpha (Homo sapiens, UniProt Q99250). The series is described as follows: Inhibition of recombinant human Nav1.2 expressed in HEK293 cells incubated for 3 mins by FRET based membrane potential assay. It is filed as cell-based.
Series [2] in a line: Ratio of free drug concentration in brain to plasma of rat. It is filed as ADME, cell-free. Particulars: brain and plasma.
Series [3] is described as follows: Drug concentration in plasma of monoiodoacetate-induced Sprague-Dawley rat model of osteoarthritis at 3 mg/kg, po administered for 5 days and measured after 15 mins. It is filed as ADME, organism-based. Particulars: time 5 day.
Series [4] is described as follows: Drug concentration in plasma of monoiodoacetate-induced Sprague-Dawley rat model of osteoarthritis at 10 mg/kg, po administered for 5 days and measured after 15 mins. Format: ADME, organism-based. The following applies: time 5 day.
The nature of series [5]: Drug concentration in plasma of monoiodoacetate-induced Sprague-Dawley rat model of osteoarthritis at 30 mg/kg, po administered for 5 days and measured after 15 mins. It is filed as ADME, organism-based. The following applies: time 5 day.
A short description of series [6]: Drug concentration in brain of monoiodoacetate-induced Sprague-Dawley rat model of osteoarthritis at 3 mg/kg, po administered for 5 days and measured after 15 mins. It is filed as ADME, organism-based. Particulars: time 5 day, read-out: Ct.
Series [7] in a line: Drug concentration in brain of monoiodoacetate-induced Sprague-Dawley rat model of osteoarthritis at 10 mg/kg, po administered for 5 days and measured after 15 mins. Format: ADME, organism-based. The following applies: time 5 day, read-out: Ct.
Series [8] can be described thus: Drug concentration in brain of monoiodoacetate-induced Sprague-Dawley rat model of osteoarthritis at 30 mg/kg, po administered for 5 days and measured after 15 mins. Particulars: time 5 day, read-out: Ct. It is filed as ADME, organism-based.
Series [9] in a line: Toxicity in rat assessed as phospholipidosis measured after 5 days. Particulars: 120 h, time 5 day.
Series [10] in a line: Toxicity in rat assessed as phospholipidosis measured after 10 days. Particulars: 240 h, time 10 day.
Series [11] concerns the target Voltage-gated inwardly rectifying potassium channel KCNH2 (Homo sapiens, UniProt Q12809).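 Further: hERG channel blockade measured by electrophysiology.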
The conditions of series [12]: rat, in vivo, po.
Series [13] in a line: in vivo. The following applies: Sprague-Dawley, rat, po.
A short description of series [14]: in vivo. Particulars: Sprague-Dawley, rat, po. The source holds these as a separate data set.
The nature of series [15]: physchem. The following applies: octanol/water.
Series [16] can be described thus: physchem. Particulars: phosphate buffer.
Series [17] can be described thus: in vitro. Particulars: PAMPA. On the technique in general: PAMPA measures passive passage across an artificial lipid membrane.
For series [18], the species on record is Rattus norvegicus. The experiment in a line: animal or person. The following applies: Sprague-Dawley.
Series [19] in a line: Cardiotoxicity in conscious dog CV model assessed as effect on mean arterial pressure upto […] microg/ml […]. Format: toxicity, Canis lupus familiaris. Particulars: dose < 5.5 µg/ml.
Series [20] is described as follows: Cardiotoxicity in conscious dog CV model assessed as effect on heart rate upto […] microg/ml by ECG analysis. Format: toxicity, Canis lupus familiaris. The following applies: dose < 5.5 µg/ml.
Series [21] in a line: Cardiotoxicity in conscious dog CV model assessed as effect on QT interval upto 5.5 microg/ml by ECG analysis. The following applies: dose < 5.5 µg/ml. It is filed as toxicity, Canis lupus familiaris.
The species entered for series [22] is Rattus norvegicus. The experiment in a line: animal or person. Particulars: Sprague-Dawley. The source holds these as a separate data set.
Series [23] is filed under the species Rattus norvegicus. The series is described as follows: animal or person. Particulars: Sprague-Dawley. This is another data set of the same source.
For series [24], the target named is Sodium channel protein type 10 subunit alpha (Homo sapiens, UniProt Q9Y5Y9). The experiment in a line: Inhibition of human Nav1.8 by FRET based membrane potential assay.
Series [25] has as its system Rattus norvegicus. The series is described as follows: Antiallodynic activity in Sprague-Dawley rat model of L5/L6 spinal nerve ligation-induced neuropathic pain assessed as maximal possible effect at 3 mg/kg, ip. Format: functional.
Series [26] relates to Rattus norvegicus. The series is described as follows: Antiallodynic activity in Sprague-Dawley rat model of L5/L6 spinal nerve ligation-induced neuropathic pain assessed as maximal possible effect at 10 mg/kg, ip. Format: functional.
The subject of series [27] is Rattus norvegicus. The experiment in a line: Antiallodynic activity in Sprague-Dawley rat model of L5/L6 spinal nerve ligation-induced neuropathic pain assessed as maximal possible effect at 30 mg/kg, ip. It is filed as functional.
Series [28] can be described thus: Drug concentration in plasma of Sprague-Dawley rat model of L5/L6 spinal nerve ligation-induced neuropathic pain at 3 mg/kg, ip by LC/MS analysis. Format: ADME, organism-based. Particulars: in vivo.
Series [29] can be described thus: Drug concentration in plasma of Sprague-Dawley rat model of L5/L6 spinal nerve ligation-induced neuropathic pain at 10 mg/kg, ip by LC/MS analysis. Format: ADME, organism-based. The following applies: in vivo.
Series [30] is described as follows: Drug concentration in plasma of Sprague-Dawley rat model of L5/L6 spinal nerve ligation-induced neuropathic pain at 30 mg/kg, ip by LC/MS analysis. Particulars: in vivo. Format: ADME, organism-based.
In series [31] the target is Sodium channel protein type 9 subunit alpha (Homo sapiens, UniProt Q15858).
The target in series [32] is Sodium channel protein type 5 subunit alpha (Homo sapiens, UniProt Q14524).
The conditions of series [33]: human, microsomes, 0.5 h, 0.5 µM.
The conditions of series [34]: rat, microsomes, 0.5 h, 0.5 µM.
Series [35] in a line: in vivo. The following applies: Sprague-Dawley, rat, iv.
Series [36] in a line: in vitro. Particulars: dog, MDCK.
Series [37] has as its system MDR1. The experiment in a line: in vitro. The following applies: dog, MDCK-MDR1.
Series [38] concerns Rattus norvegicus. The series is described as follows: Antiallodynic activity in Sprague-Dawley rat model of L5/L6 spinal nerve ligation-induced neuropathic pain assessed as maximal possible effect at 10 mg/kg, po. It is filed as functional.
Series [39] concerns Rattus norvegicus. The series is described as follows: Antiallodynic activity in Sprague-Dawley rat model of L5/L6 spinal nerve ligation-induced neuropathic pain assessed as maximal possible effect at 30 mg/kg, po. Format: functional.
Series [40] deals with Rattus norvegicus. The series is described as follows: Antiallodynic activity in Sprague-Dawley rat model of L5/L6 spinal nerve ligation-induced neuropathic pain assessed as maximal possible effect at 100 mg/kg, po. Format: functional.
A short description of series [41]: Drug concentration in plasma of Sprague-Dawley rat model of L5/L6 spinal nerve ligation-induced neuropathic pain at 10 mg/kg, po by LC/MS analysis. Format: ADME, organism-based. The following applies: in vivo.
Series [42] can be described thus: Drug concentration in plasma of Sprague-Dawley rat model of L5/L6 spinal nerve ligation-induced neuropathic pain at 30 mg/kg, po by LC/MS analysis. It is filed as ADME, organism-based. The following applies: in vivo.
Series [43] can be described thus: Drug concentration in plasma of Sprague-Dawley rat model of L5/L6 spinal nerve ligation-induced neuropathic pain at 100 mg/kg, po by LC/MS analysis. Particulars: in vivo. It is filed as ADME, organism-based.
Series [44] is described as follows: Drug concentration in brain of Sprague-Dawley rat model of L5/L6 spinal nerve ligation-induced neuropathic pain at 10 mg/kg, po by LC/MS analysis. Particulars: in vivo. It is filed as ADME, organism-based.
Series [45] is described as follows: Drug concentration in brain of Sprague-Dawley rat model of L5/L6 spinal nerve ligation-induced neuropathic pain at 30 mg/kg, po by LC/MS analysis. Format: ADME, organism-based. Particulars: in vivo.
The nature of series [46]: Drug concentration in brain of Sprague-Dawley rat model of L5/L6 spinal nerve ligation-induced neuropathic pain at 100 mg/kg, po by LC/MS analysis. Format: ADME, organism-based. The following applies: in vivo.
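Wherever logD is given: distribution coefficient quantified using high-throughput LC-MS.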
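Wherever solubility is given: determined using a high-throughput solubility method.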

Chain of Sodium channel protein type 2 subunit alpha (Q99250 whole entry): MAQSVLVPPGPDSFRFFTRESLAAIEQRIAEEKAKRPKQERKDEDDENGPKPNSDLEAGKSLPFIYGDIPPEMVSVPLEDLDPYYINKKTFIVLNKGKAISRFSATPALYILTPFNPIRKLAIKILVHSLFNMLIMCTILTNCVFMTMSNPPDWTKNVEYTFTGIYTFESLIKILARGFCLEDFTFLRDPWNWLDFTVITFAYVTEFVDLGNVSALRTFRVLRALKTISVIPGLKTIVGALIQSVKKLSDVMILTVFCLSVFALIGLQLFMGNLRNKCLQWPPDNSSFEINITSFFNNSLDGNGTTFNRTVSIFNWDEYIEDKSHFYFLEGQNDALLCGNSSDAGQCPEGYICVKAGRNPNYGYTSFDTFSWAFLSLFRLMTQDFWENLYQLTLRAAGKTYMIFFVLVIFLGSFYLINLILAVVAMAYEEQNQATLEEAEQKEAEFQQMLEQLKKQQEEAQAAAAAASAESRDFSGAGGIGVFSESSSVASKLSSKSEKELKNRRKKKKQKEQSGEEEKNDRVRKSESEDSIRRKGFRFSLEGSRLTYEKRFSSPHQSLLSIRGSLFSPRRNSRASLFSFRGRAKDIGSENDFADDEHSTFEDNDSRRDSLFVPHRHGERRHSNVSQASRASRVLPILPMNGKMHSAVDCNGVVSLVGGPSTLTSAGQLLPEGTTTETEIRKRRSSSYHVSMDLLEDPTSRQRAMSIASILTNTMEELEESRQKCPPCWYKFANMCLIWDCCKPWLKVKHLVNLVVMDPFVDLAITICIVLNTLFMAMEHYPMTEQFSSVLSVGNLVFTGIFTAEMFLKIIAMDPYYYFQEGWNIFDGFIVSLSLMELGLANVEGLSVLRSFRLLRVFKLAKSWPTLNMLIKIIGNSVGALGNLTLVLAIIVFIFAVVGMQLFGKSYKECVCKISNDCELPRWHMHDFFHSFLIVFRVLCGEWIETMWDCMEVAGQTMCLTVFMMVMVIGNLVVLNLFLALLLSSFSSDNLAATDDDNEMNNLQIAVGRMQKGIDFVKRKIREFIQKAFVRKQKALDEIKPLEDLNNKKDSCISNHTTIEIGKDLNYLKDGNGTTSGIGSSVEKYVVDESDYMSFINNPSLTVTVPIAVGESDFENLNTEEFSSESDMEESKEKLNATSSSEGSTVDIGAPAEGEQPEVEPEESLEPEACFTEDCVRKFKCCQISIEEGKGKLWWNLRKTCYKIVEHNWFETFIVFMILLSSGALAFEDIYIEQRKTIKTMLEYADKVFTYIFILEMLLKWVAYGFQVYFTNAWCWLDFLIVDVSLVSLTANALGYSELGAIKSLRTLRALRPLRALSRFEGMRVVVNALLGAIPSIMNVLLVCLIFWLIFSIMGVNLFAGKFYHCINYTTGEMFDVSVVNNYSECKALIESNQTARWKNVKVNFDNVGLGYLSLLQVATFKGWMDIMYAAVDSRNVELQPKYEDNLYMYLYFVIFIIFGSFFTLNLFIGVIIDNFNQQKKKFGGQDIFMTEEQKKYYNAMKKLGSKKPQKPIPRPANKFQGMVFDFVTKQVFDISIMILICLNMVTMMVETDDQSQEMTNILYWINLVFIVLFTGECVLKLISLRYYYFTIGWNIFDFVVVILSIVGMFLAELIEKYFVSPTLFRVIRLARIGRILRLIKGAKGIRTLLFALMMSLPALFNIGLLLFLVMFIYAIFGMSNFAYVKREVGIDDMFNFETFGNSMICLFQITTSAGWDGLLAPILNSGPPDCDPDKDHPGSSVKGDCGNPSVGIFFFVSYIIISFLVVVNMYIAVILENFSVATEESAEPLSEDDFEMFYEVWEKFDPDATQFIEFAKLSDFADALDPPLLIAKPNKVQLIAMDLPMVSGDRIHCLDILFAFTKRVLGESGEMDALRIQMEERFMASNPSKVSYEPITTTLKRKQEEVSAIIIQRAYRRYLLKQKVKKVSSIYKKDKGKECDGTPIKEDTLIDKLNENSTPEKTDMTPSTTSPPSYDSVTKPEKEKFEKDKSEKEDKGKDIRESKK
Chain of Voltage-gated inwardly rectifying potassium channel KCNH2 (Q12809 whole entry): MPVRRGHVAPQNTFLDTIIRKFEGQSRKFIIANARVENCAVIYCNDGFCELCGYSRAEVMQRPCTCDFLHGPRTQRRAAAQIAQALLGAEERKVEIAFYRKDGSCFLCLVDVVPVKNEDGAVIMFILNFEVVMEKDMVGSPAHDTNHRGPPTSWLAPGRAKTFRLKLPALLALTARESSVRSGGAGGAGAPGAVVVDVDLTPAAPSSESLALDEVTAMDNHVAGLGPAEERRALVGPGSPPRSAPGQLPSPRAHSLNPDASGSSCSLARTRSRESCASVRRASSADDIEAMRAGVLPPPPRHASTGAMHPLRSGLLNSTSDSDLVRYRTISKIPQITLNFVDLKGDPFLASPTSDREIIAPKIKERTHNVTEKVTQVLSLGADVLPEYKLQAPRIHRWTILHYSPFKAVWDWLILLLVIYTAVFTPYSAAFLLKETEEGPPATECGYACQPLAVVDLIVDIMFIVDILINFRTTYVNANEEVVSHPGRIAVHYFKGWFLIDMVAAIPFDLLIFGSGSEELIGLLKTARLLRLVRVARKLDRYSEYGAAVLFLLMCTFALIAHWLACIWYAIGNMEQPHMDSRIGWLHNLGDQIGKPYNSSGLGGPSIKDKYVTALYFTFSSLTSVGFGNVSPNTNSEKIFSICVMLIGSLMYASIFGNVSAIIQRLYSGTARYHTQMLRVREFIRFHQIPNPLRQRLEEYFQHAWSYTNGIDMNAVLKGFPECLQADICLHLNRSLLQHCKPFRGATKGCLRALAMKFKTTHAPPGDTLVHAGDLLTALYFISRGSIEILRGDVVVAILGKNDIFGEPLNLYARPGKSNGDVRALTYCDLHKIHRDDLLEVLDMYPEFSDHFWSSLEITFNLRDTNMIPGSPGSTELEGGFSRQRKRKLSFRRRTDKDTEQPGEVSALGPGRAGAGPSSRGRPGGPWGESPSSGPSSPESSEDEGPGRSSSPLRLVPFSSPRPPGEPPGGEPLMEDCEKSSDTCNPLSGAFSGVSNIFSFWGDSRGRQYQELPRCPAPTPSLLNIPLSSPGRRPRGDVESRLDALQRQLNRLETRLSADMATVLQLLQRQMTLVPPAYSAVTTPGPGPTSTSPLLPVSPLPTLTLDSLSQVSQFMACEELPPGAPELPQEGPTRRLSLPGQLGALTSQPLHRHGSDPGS
Chain of Sodium channel protein type 9 subunit alpha (Q15858 whole entry, looked up): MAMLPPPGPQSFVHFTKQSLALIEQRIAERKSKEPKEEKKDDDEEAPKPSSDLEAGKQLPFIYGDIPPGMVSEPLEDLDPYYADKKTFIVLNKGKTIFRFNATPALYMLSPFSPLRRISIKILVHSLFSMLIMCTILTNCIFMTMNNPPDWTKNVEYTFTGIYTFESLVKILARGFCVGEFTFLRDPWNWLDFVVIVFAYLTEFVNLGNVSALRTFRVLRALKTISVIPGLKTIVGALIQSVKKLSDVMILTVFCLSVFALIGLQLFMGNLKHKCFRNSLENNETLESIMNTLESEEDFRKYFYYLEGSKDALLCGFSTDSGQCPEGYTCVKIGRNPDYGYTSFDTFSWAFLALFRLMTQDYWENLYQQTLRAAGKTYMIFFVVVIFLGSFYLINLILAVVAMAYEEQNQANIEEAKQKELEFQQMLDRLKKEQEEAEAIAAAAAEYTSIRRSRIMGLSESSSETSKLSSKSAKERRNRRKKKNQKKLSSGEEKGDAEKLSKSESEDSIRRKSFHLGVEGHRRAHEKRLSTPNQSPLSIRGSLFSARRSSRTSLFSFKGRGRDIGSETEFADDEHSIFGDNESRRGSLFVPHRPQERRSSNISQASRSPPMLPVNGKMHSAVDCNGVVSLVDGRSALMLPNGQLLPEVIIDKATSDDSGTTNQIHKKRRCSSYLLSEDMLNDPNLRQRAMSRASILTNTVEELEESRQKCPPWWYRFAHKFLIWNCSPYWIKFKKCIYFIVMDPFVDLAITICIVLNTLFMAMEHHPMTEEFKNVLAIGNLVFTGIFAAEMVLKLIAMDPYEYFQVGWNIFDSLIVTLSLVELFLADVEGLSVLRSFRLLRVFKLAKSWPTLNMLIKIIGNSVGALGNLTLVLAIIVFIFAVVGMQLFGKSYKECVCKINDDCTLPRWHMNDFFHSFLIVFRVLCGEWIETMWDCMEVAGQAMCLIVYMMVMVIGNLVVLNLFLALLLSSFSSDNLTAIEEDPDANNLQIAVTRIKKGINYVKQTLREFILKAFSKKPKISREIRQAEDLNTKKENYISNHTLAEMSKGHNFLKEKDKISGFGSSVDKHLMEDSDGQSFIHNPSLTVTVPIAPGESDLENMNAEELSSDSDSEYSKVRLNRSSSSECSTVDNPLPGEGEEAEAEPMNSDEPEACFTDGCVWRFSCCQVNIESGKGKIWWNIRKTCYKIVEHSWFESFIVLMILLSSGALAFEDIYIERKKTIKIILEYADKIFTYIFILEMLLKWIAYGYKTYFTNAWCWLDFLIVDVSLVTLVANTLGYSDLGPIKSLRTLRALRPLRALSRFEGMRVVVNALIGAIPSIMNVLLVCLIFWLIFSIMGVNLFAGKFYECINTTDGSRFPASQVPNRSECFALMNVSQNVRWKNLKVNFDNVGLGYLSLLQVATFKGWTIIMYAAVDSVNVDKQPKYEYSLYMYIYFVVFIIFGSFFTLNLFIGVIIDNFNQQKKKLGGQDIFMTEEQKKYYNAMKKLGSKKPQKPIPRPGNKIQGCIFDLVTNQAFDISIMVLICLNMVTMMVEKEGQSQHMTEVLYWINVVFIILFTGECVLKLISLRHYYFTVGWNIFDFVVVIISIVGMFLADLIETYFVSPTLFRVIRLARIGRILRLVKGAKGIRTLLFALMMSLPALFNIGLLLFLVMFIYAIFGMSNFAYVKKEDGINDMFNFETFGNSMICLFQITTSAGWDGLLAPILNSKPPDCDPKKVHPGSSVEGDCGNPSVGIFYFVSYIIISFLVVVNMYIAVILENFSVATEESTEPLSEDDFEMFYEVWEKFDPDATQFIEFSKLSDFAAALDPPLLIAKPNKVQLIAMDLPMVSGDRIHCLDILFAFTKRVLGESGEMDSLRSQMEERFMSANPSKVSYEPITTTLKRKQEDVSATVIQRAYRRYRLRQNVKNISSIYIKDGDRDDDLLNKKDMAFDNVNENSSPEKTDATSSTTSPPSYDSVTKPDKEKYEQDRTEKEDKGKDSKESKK

Regarding `O=C(c1ccc2cc(Oc3ccc(C(F)F)cn3)ccc2n1)N1CCNCC1`, the pIC50 in series [1] was 4.89; in series [11], 4.53. Moreover, the Kp uu in series [2] was 0.14. Further, the concentration at 120 h in series [3] turned out to be 1000 ng/mL; in [4] it was 4170 ng/mL; in [5] it was 9110 ng/mL; in series [6] it was 200 ng/mL; in series [7], 720 ng/mL; in series [8] it was 1560 ng/mL. Further, the Activity entry is on record as “Non-Toxic” in series [9] and “Toxic” in series [10]. The compound also came in with a Vdss in series [12] of 5.42 L/kg. Also, the half-life in series [13] is 3.38 h. The bioavailability in series [14] amounted to 96%. This compound showed a pH-dependent lipophilicity (logD) in series [15] of 2.4. In series [16], this compound returned a solubility of 150 µM (≈ 57.7 µg/mL). In addition, the Papp in series [17] worked out at 3.3 ×10⁻⁶ cm/s. In series [18], this compound registered an EC50 of 0.45 µg/mL (≈ 1.17 µM).
As for `O=C(c1ccc2cc(Oc3ccc(C(F)(F)F)cn3)ccc2n1)N1CCNCC1`, the pIC50 in series [1] was 5.18. The Kp uu in series [2] came out at 0.08. Further, the values for the concentration at 120 h in [3], in [4] and in series [5] were 160 ng/mL, 510 ng/mL and 1060 ng/mL, respectively. The Activity entry in series [19], in [20] and in series [21] was “Non-Toxic” throughout. The compound also returned a Vdss in [12] of 11.5 L/kg. The compound also had a half-life in [13] of 12.8 h. Also, in [14], the bioavailability was 98%. This compound also showed a logD in series [15] of 3.1. In [16], the solubility turned out to be 200 µM (≈ 80.5 µg/mL). This compound displayed a Papp in series [17] of 4.7 ×10⁻⁶ cm/s. Besides, the EC50 was 0.17 µg/mL (≈ 0.422 µM) in series [22] and 0.04 µg/mL (≈ 0.0994 µM) in series [23].
Regarding `CN1CCN(C(=O)COc2ccc3cc(Oc4ccccn4)ccc3n2)CC1`, the pIC50 in series [24] was 5.74; in series [1], 4.70; in series [11], 4.52; in [31], 5.50; in series [32] it was 4.48. In addition, the figures for the MPE in series [25], in series [26] and in [27] were 10%, 30% and 59%, respectively. For the same compound, in [2], the Kp uu came out at 0.88. For the same compound, the Cp amounted to 110 ng/mL in [28], 400 ng/mL in series [29] and 1930 ng/mL in [30]. The CLH was under 33 mL/min/kg in series [33] and 567 mL/min/kg in series [34]. Further, in series [35], the clearance is 54 mL/min/kg. Further, the half-life in series [13] was 3.38 h. The bioavailability in [14] was 10%. In [15], this compound gave a logD of 2.9. Besides, the solubility in [16] was 176 µM (≈ 66.6 µg/mL). Further, the Papp in series [36] was 33.4 ×10⁻⁶ cm/s. Moreover, the efflux ratio in series [37] was found to be 3.7.
Take `N#Cc1ccc(Oc2ccc3c(ccc(=O)n3CCN3CCCCC3)c2)cc1`: the pIC50 in [24] was 7.10; in [1], 5.47; in series [11], over 6.00; in [31] it was 5.64; in [32], 5.80. For the same compound, the MPE in series [38] is reported as 54%; in series [39], 53%; in series [40], 89%. In series [2], the Kp uu was found to be 0.45. In addition, the Cp in [41] was determined as 290 ng/mL; in [42], 470 ng/mL; in series [43], 1270 ng/mL. The Ct in series [44] amounted to 0.56 µg/mL; in [45], 1.05 µg/mL; in series [46], 3.38 µg/mL. For the same compound, the CLH is 150 mL/min/kg in [33] and 633 mL/min/kg in [34]. Further, in [35], the clearance is 52.7 mL/min/kg. The compound further had a bioavailability in series [14] of 17%. The same compound displayed a log distribution coefficient (logD) in [15] of 3.4. For the same compound, the solubility in series [16] was found to be 140 µM (≈ 52.3 µg/mL). This compound gave a Papp in series [17] of 3.7 ×10⁻⁶ cm/s.
